For 13 molecules, TGI and GI50 results are on record in PubChem BioAssay (NCI).

Molecules are shown by their SMILES.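 All cell lines were grown in 96-well plates and treated with compound for 48 hours. Here, GI50 denotes the concentration required for 50% inhibition of growth. TGI: concentration producing complete growth inhibition.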

Assay in all cases: DTP human tumour cell line panel, 48 h
The subject of test [1] is SF-268 CNS.
The subject of test [2] is OVCAR-5 ovarian.
Test [3] has as its system OVCAR-4 ovarian.
The subject of test [4] is UO-31 renal.
In test [5] the test system is SK-MEL-5 melanoma.
Test [6] relates to RXF 393 renal.
For test [7], the system named is U251 CNS.
Test [8] concerns SF-295 CNS.
The subject of test [9] is MOLT-4 leukemia.

Consider `O=C(Nc1ccc(Cl)cc1Cl)C1C(=O)C(=O)N(c2ccc(Cl)cc2Cl)C1=O` (centres undefined), for which the TGI in [1], in test [2], in test [3], in [4], in [5] and in test [6] was more than 100 µM throughout. The molecule also registered a TGI in [7] of more than 100 µM.
Turning to `Cc1cccc(C)c1CO`, the TGI in [1], in test [2], in test [3], in test [4], in test [8] and in test [6] was more than 100 µM throughout. For the same molecule, the TGI in test [9] and in test [7] was more than 100 µM each time.
As for `CC(=O)OC1CCn2nnc(CO)c21` (centres undefined), the TGI in test [2], in test [3], in test [4], in test [5], in [8] and in test [6] was more than 100 µM throughout. Further, the TGI in [9] and in test [7] was more than 100 µM throughout.
Turning to `N#CC1=C(N)Oc2c(ccc3ccccc23)C1c1ccccc1` (centres undefined), the GI50 in test [1] was 0.166 µM; in test [2], 0.172 µM; in [3], 0.063 µM; in test [4], 0.0622 µM; in test [5] it was 0.0346 µM; in test [8], 0.0299 µM. Also, the GI50 is 0.0574 µM in [9] and 0.0454 µM in [7]. The TGI in test [1] is 15.7 µM; in [2] it was 17.2 µM; in test [3], 14.5 µM; in test [4], 15.2 µM; in test [5] it was 0.451 µM; in [8], 11.6 µM. The TGI in test [9] turned out to be 16.8 µM; in test [7] it was 15.1 µM.
Regarding `Cn1nc(-c2ccccc2)c(C(=O)/C=C/c2ccc(Cl)cc2)c(N2CCCCC2)c1=O`, the TGI in [4] was 3.03 µM; in test [5], 3.75 µM; in test [8], 2.14 µM; in test [6], 2.8 µM; in test [9] it was 4.65 µM; in test [7], 3.82 µM.
Turning to `COC(=O)C1=C(O)c2cc(-c3ccccc3)c(-c3ccccc3)c(C#N)c2NC(=O)C1`, the TGI is more than 100 µM in [3]; more than 100 µM in test [4]; 42.1 µM in test [8]; 9.33 µM in test [6]; more than 100 µM in test [9]; more than 100 µM in test [7].
On to `NC(=O)CCC(Nc1c2ccccc2nc2ccccc12)C(=O)O` (centres undefined), for which the TGI was more than 100 µM in test [1]; more than 100 µM in test [2]; 80.8 µM in [3]; more than 100 µM in test [8]; more than 100 µM in [6]; more than 100 µM in test [9]. Besides, the TGI in [7] was more than 100 µM.
Consider `O=C(O)Cc1cc(=O)[nH]c2c1/C(=N/O)CCC2`, for which the TGI in [1], in [2], in test [4], in test [5], in test [8] and in test [6] was more than 100 µM in each case. For the same molecule, the TGI in test [9] and in test [7] was more than 100 µM each time.
Regarding `CCOC(=O)Cc1ccc2c(c1O)C(=O)c1c(ccc(CC(=O)OCC)c1O)C2=O`, the TGI in [1], in [2], in test [4], in test [5], in test [8] and in test [6] was more than 100 µM in each case. Further, the TGI in [9] and in test [7] was more than 100 µM each time.
Take `COc1ccc(/C(=N\NC(=O)C(=O)NN)C(c2ccc(OC)cc2)C2(O)C(=O)Nc3ccccc32)cc1` (centres undefined): the total growth inhibition concentration (TGI) in test [1] is more than 100 µM; in [2] it was more than 100 µM; in [4], 82.1 µM; in [5] it was more than 100 µM; in test [9], more than 100 µM; in [7], more than 100 µM.
Take `CN(C)CCNC(=O)c1cccc2nc3cc(Cl)ccc3nc12`: the TGI in test [2] is 7.62 µM; in test [3] it was 8.54 µM; in [4], more than 29.1 µM; in test [5], more than 33.6 µM; in [8], more than 27.8 µM; in test [6] it was 6.31 µM. Also, the results for the TGI in test [9] and in [7] were 2.77 µM and 12.4 µM, respectively.
Consider `CC(=Nc1ccccc1)C1=C(O)C(Cc2ccc(O)cc2)NC1=O` (centres undefined), for which the GI50 is 0.117 µM in test [1]; 0.548 µM in [2]; 0.385 µM in test [3]; 0.321 µM in test [4]; 0.0512 µM in [5]; 0.371 µM in [9]. Further, in [7], the GI50 is 0.0609 µM. For the same molecule, the TGI in test [1] is more than 80.2 µM; in test [2], more than 100 µM; in [3] it was more than 100 µM; in test [4] it was more than 100 µM; in test [5], 2.37 µM; in test [9], more than 100 µM.
Consider `COc1ccc2c3c([nH]c2c1[N+](=O)[O-])C(C)N(Cc1ccc([N+](=O)[O-])cc1)CC3` (centres undefined), for which the TGI in test [1] is 9.22 µM; in test [2], more than 100 µM; in test [3], 12.2 µM; in test [4] it was more than 100 µM; in test [8] it was 43 µM; in [6], 57.1 µM. Moreover, the values for the TGI in test [9] and in test [7] were more than 100 µM and 46.9 µM, respectively.

One may read the TGI as the concentration at which net growth stops. High values mean lower sensitivity of the cells, low ones greater sensitivity of the cells. In general, GI50 refers to the concentration at which growth is held to half of that of the control.
